Data as given in US10500198B2, “Bis-benzylidine piperidone proteasome inhibitor with anticancer activity” (The Johns Hopkins University, priority 2013, dated 2019).
“Also recorded” adds a separate entry of the source.

Legend:
cancer cells = assay: Antiproliferative activity against cancer cells (design rationale); assay type: cell-based
From the text: We used Chloro and Nitro functional groups as substituent's on the aromatic ring due to their greater electron withdrawing effect at ortho (or) para (or) meta (or) both positions along with different amino acid linkages on bis-benzylidine piperidone moiety. Amino acids were chosen based in their physical characteristics like very hydrophobic (phenylalanine), strongly basic and hydrophilic (lysine), basic and hydrophilic (histidine) and amphiphilic (glycine). Commercially available Fmoc and Boc protected amino acids were used in the synthesis, and they were evaluated for their antiproliferatory activity against cancer cells.
Next we synthesized another set of compounds by converting free amine functionality to its Acetate (Ac), Acrolyl (Acr) and Benzoyl […] analogs as these units are part of many anticancer drugs because of their smaller size and feasibility to form inter molecular hydrogen bonds with proteins.
In the RA195 molecule two amino functionalities of lysine can provide more flexibility to make better analogs.

RPN13 = target: T1, RPN13 (Homo sapiens, UniProt Q16186); assay: Biotin labeling assay; assay type: binding; conditions: cell lysate or purified RP, streptavidin-peroxidase blot
T1 construct: endogenous in cells; host or cells: HeLa, HS578T cell lysate
Protocol: FIGS. 10 A-10E show a series of graphs and immunoblots showing the effects of several compounds on cell viability and proteasome activity. […] 10B and 10C show immunoblots of the proteasome activity of cell lines treated with the indicated compounds. […] IC50 values were determined in triplicate. In FIG. 10B, HeLa cells were treated for 12 hr and the cell lysate was subjected to immunoblot analysis with anti-Ubiquitin antibody. In FIG. 10C, SiHa cells were treated with the indicated compounds for 12 hr and the lysate subjected to Western blot analysis with anti-Ubiquitin antibody. HeLa cell lysate was treated with RA190B, subjected to SDS-PAGE, and probed with streptavidin-peroxidase following protein transfer to a polyvinylidene difluoride (PVDF) membrane. The streptavidin-peroxidase bound to biotinylated cellular proteins, but a striking new band at 42 kDa appeared in RA190B-treated samples (FIG. 2A). […] IC50 values were determined in triplicate.
To eliminate the possibility that another RP component was required for RA190B interaction, RPN13 or an irrelevant protein (L2) was overexpressed in bacteria. Cell lysate harvested from bacteria either with or without […] induction of ectopic protein expression was labeled with RA190B and probed by blotting with streptavidin-peroxidase. RA190B reacted strongly with a 42 kDa protein only in lysates of bacteria expressing RPN13 (FIG. 2D). […] 800 μL fractions were collected and alternate fractions (1,3,5,7,9,11,13,15,17) were analyzed for the presence of proteasomal proteins (RPN13, RPN2, RPN1 and UCH37) by Western blot analysis.
Human cells (5×10^6 HeLa or 293TT cells) were lysed using MPER (Pierce) lysis buffer (500 μL). RPN13 or HPV L2 transformed bacterial cells (500 μL of culture) were centrifuged to harvest the cells which were re-suspended in 500 μL BPER (Pierce). Cell lysates were centrifuged at 10,000 rpm briefly (2 min) at 4° C. to remove cell debris. Lysate supernatant (200 μL) was pre cleared with streptavidin dyna beads (20 μL) for 1 h at 4° C. to remove non-specific biotin binding and incubated with compounds (indicated concentrations or 20 μM) at 4° C. for 1 hr. An equal amount of each sample (20 μL of lysate) was mixed with an equal volume of Laemmli sample buffer (20 μL) (BioRad) and was boiled for 5 min. […] (24 V). Membrane was blocked with 5% BSA in PBST for 1 hr at room temperature and washed for 20 min (3×PBST). Then the membrane was probed with HRP-streptavidin (1:10,000 in PBST) for 1 hr at room temperature and washed for 30 min (3×PBST) and developed using HyGLO chemiluminescent detection reagent (Denville) for biotin recognition. For the purified enzyme assay, 19S purified proteasome (R&D Systems, Cat. No. E-366) (500 ng) in 19S buffer (20 mM HEPES, 20 mM NaCl, 1 mM DTT, 15% Glycerol) was incubated with compounds (20 μM) for 1 hr at room temperature and mixed with an equal volume of Laemmli sample buffer (20 μL) (BioRad) and was boiled for 5 min. Each sample was loaded onto gel and followed the western blot protocol mentioned above.
Purified 19S proteasome (500 ng) was incubated with corresponding compounds for 30 min and subjected to immunoblot and probed with HRP-conjugated streptavidin. In FIG. 23, the single band at 42 KDa indicates Rpn13 binding to 195. RA183B (20 μM) is used as positive control for Rpn13 binding. Competition experiments were done with RA183 (100 μM) and RA195 (100 μM) along with RA195B (20 μM).

purified 20S proteasomes = purified 20S proteasomes (Homo sapiens, UniProt P28072+P28074+Q99436); assay: 20S proteolytic activity assay; assay type: biochemical; conditions: 1 μM; for chymotryptic activity of the 20S proteasome (Suc-LLVY-AMC): 30 min
Protocol: Actin was used as a loading control. […] In FIG. 9C-E, purified 20S proteasomes were treated for 30 min with or without compounds (1 μM) prior to the addition of the specific fluorogenic substrate for chymotryptic (9C), tryptic (9D) or PGPH (9E) hydrolytic proteasome capacities. […] DMSO was added to all samples to a final concentration of 0.1% (upper panel). The effect of DMSO is highlighted by including ubiquitin—AMC (0.5 μM) hydrolysis with 2 nM UCH37 lacking DMSO (orange, bottom panel). In FIG. 9H, purified 19S RP (500 nM) in buffer was treated with corresponding compounds 30 min at 37° C. and AMC cleavage was measured with a fluorometer for 20 min. Ubal was used as a positive control.
Release of free AMC by the enzyme reaction was determined by measuring its fluorescence at 380 nm (excitation) and 440 nm (emission). The graphs shown are representative of at least three independent determinations and each data point is the mean of ±SD of triplicate determinations.
20S proteasome cleaves the chymotryptic substrate and releases fluorescent AMC.

T1 sequence (Q16186 whole entry): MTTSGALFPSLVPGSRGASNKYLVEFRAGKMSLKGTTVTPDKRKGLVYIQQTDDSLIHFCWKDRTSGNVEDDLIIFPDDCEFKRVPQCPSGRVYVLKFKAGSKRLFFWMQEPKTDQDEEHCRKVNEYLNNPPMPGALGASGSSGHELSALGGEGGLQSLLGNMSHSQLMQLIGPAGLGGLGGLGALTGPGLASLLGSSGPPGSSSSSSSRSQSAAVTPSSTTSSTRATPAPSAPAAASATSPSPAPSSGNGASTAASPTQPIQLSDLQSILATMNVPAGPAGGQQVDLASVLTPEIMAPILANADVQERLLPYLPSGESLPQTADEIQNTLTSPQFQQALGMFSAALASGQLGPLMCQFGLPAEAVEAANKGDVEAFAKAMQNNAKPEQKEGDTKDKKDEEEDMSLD

| Structure (SMILES) | antiproliferative potency among analogs (cancer cells) | labeling of / competition for RPN13 (42 kDa band) (RPN13) | chymotryptic activity of the 20S proteasome (Suc-LLVY-AMC) (purified 20S proteasomes) | CP chymotryptic, tryptic, and PGPH activities (purified 20S proteasomes; 30 min pre-treatment) |
| --- | --- | --- | --- | --- |
| Cl.NCCCC[C@H](NC(=O)OCC1c2ccccc2-c2ccccc21)C(=O)N1C/C(=C\c2ccc(Cl)c(Cl)c2)C(=O)/C(=C/c2ccc(Cl)c(Cl)c2)C1 [RA195] | higher potency | binds covalently to RPN13 | do not |  |
| Cl.N[C@@H](Cc1ccccc1)C(=O)N1CC(=Cc2ccc(Cl)c(Cl)c2)C(=O)C(=Cc2ccc(Cl)c(Cl)c2)C1 [RA190, 3,5-bis(3,4-dichlorobenzylidene)-1-(S-2-amino-3-phenyl)-piperidin-4-one-HCl salt] | higher potency | competitive; also recorded: covalently binds directly to RPN13 | do not | does not inhibit |
